pEC50: −log10 of the molar value.
Target: T1, LXRα (Homo sapiens, UniProt Q13133)
T1 construct: Co-transfection expression plasmids, comprising full-length LXRα (pCMX-h LXRα); expressed in transfected cells; host or cells: CV-1 African green monkey kidney cells, transient transfection with FuGENE6
T1 sequence (Q13133 1-447): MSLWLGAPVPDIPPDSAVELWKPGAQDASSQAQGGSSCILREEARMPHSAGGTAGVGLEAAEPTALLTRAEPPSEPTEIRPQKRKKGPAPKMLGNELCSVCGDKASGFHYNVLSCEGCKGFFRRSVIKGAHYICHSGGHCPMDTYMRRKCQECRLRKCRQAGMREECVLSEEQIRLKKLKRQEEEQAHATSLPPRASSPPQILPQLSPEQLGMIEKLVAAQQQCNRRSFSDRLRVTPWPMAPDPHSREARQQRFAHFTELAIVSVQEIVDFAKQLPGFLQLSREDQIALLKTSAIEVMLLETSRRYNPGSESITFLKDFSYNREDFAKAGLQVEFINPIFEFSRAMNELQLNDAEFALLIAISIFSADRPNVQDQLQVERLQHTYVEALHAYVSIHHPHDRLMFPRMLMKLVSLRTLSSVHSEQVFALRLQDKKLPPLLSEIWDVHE
T1 sequence (P19793 1-462 partner): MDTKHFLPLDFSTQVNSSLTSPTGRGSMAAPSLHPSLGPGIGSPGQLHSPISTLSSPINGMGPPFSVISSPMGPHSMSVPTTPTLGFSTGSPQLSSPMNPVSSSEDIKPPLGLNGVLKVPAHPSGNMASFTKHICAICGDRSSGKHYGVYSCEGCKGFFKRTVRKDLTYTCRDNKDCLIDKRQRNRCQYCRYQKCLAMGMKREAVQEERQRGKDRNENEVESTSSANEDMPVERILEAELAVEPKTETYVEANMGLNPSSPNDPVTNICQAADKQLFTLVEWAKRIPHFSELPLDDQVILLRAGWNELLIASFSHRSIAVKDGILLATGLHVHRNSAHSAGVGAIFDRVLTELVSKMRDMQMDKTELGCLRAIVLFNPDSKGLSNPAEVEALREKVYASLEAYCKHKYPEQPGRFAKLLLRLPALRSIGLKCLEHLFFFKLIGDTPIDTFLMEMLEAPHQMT
Assay: LXR/LXRE co-transfection assay (LXRα)
Assay type: cell-based
Details: for pEC50: CV-1 cells, LXRE luciferase reporter; for Emax: efficacy relative to high control N-(3-((4-fluorophenyl)-(naphthalene-2-sulfonyl)amino)propyl)-2,2-dimethylpropionamide, read-out: LXRα Eff (%)
Text: To measure the ability of compounds to activate or inhibit the transcriptional activity of LXR in a cell based assay, the co-transfection assay was used. It has been shown that LXR functions as a heterodimer with RXR. For the co-transfection assay, expression plasmids for LXRα and LXRβ are introduced separately via transient transfection into mammalian cells along with a luciferase reporter plasmid that contains one copy of a DNA sequence that is bound by LXR-RXR heterodimers (LXRE; Willy, P. et. al. 1995). LXRs heterodimerize with the endogenous RXR. Treatment of transfected cells with an LXR agonist increases the transcriptional activity of LXR, which is measured by an increase in luciferase activity.
Co-transfection expression plasmids, comprising full-length LXRα (pCMX-h LXRα or LXRβ (pCMX-hLXRβ), reporter plasmid (LXREx1-Tk-Luciferase), and control (pCMX-Galactosidase expression vector) (Willey et al. Genes & Development 9 1033-1045 (1995)).
CV-1 cells were prepared 24 hours prior to the experiment by plating them into T-175 flasks or 500 cm^2 dishes in order to achieve 70-80% confluency on the day of the transfection. The number of cells to be transfected was determined by the number of plates to be screened. Each well of a 384 well plate requires ˜8000 cells. DNA Transfection Reagent was prepared by mixing the required plasmid DNAs with a cationic lipid transfection reagent FuGENE6 (Roche) by following the instructions provided with the reagents. Optimal DNA amounts were determined empirically per cell line and size of vessel to be transfected. For each T175 cm^2 flask a total of 20 μg of DNA, 60 μl of Fugene 6 and 1 ml of Optimem was mixed and added. Cells were then incubated at least 5 hours at 37° C. to prepare screening cells.
Assay plates were prepared by dispensing 5 μL, of compound per well of a 384 well plate to achieve final compound concentration of 10 μM and no more than 0.5% DMSO. Media was removed from the screening cells, the cells trypsinized, harvested cells by centrifugation, counted, and plated at a density of approximately 8000 cells per well in the 384 well assay plate prepared above in a volume of about 45 μL. Assay plates containing both compounds and screening cells (50 μL, in total volume) were incubated for 20 hours at 37° C.
After incubation with compounds, media was removed from the cells and luciferase assay reagent (30 μL/well) added. After ˜2 minutes at ambient temperature, the assay plates were read on a luminometer (PE Biosystems Northstar reader with on-board injectors, or equivalent).
The LXR/LXRE co-transfection assay can be used to establish the EC50/IC50 values for potency and percent activity or inhibition for efficacy. Efficacy defines the activity of a compound relative to a high control ((N-(3-((4-fluorophenyl)-(naphthalene-2-sulfonyl)amino)propyl)-2,2-dimethylpropionamide)) or a low control (DMSO/vehicle). The dose response curves are generated from a 10 point curve with concentrations differing by ½ LOG units.
The data from this assay is fitted to the following equation, from which the EC50 value may be solved: Y=Bottom+(Top−Bottom)/(1+10^((logEC50-X)*HillSlope)).
The EC50/IC50 is therefore defined as the concentration at which an agonist or antagonist elicits a response that is half way between the Top (maximum) and Bottom (baseline) values. The EC50/IC50 values represented are the averages of at least 2 and normally 3 independent experiments. The determination of the relative efficacy or % control for an agonist is by comparison to the maximum response achieved by ((N-(3-((4-fluorophenyl)-(naphthalene-2-sulfonyl)-amino)propyl)-2,2-dimethylpropionamide) that is measured individually in each dose response experiment.

Row | pEC50 | Emax [%] | SMILES
1 | 6.00 to 7.00 | 38 | CC(C)(O)c1cn(-c2ccc(-c3cccc(S(C)(=O)=O)c3)cc2)c(C(C)(C)c2ccccc2Cl)n1 [Compound No. 19, Table 1, WO 2007/002563, reference compound]
2 | 6.00 to 7.00 | 13 | CC(C)(O)c1cn(-c2ccc(-c3cc(F)c(CO)c(S(C)(=O)=O)c3)cc2)c(C(C)(C)c2ccccc2F)n1 [Example 1, 2-(1-(3′-fluoro-4′-(hydroxymethyl)-5′-(methylsulfonyl)biphenyl-4-yl)-2-(2-(2-fluorophenyl)propan-2-yl)-1H-imidazol-4-yl)propan-2-ol]
3 | > 7.00 | 10 | Cc1cc(-c2cc(F)c(CO)c(S(C)(=O)=O)c2)ccc1-n1cc(C(C)(C)O)nc1C(C)(C)c1c(F)cccc1Cl [Example 2, 2-(2-(2-(2-chloro-6-fluorophenyl)propan-2-yl)-1-(3′-fluoro-4′-(hydroxymethyl)-3-methyl-5′-(methylsulfonyl)biphenyl-4-yl)-1H-imidazol-4-yl)propan-2-ol]
4 | > 7.00 | 6 | CC(C)(O)c1cn(-c2ccc(-c3cc(F)c(CO)c(S(C)(=O)=O)c3)cc2Cl)c(C(C)(C)c2c(Cl)cccc2Cl)n1 [Example 3, 2-(1-(3-chloro-3′-fluoro-4′-(hydroxymethyl)-5′-(methylsulfonyl)biphenyl-4-yl)-2-(2-(2,6-dichlorophenyl)propan-2-yl)-1H-imidazol-4-yl)propan-2-ol]
5 |  | 12 | CC(C)(O)c1cn(-c2ccc(-c3cc(F)c(CO)c(S(C)(=O)=O)c3)cc2)c(C(C)(C)c2cccc(F)c2Cl)n1 [Example 4, 2-(2-(2-(2-chloro-3-fluorophenyl)propan-2-yl)-1-(3′-fluoro-4′-(hydroxymethyl)-5′-(methylsulfonyl)biphenyl-4-yl)-1H-imidazol-4-yl)propan-2-ol]
6 | > 7.00 | 25 | CC(C)(O)c1cn(-c2ccc(-c3cc(F)c(CO)c(S(C)(=O)=O)c3)cc2)c(C(C)(C)c2c(Cl)cccc2Cl)n1 [Example 5, 2-(2-(2-(2,6-dichlorophenyl)propan-2-yl)-1-(3′-fluoro-4′-(hydroxymethyl)-5′-(methylsulfonyl)biphenyl-4-yl)-1H-imidazol-4-yl)propan-2-ol]
7 | > 7.00 | 25 | CC(C)(O)c1cn(-c2ccc(-c3cc(F)c(CO)c(S(C)(=O)=O)c3)cc2F)c(C(C)(C)c2ccccc2Cl)n1 [Example 6, 2-(2-(2-(2-Chloro-phenyl)propan-2-yl)-1-(3,3′-difluoro-4′-hydroxymethyl-5′-(methylsulfonyl)biphenyl-4-yl)-1H-imidazol-4-yl)-propan-2-ol]
8 | > 7.00 | 15 | CC(C)(O)c1cn(-c2ccc(-c3cc(F)c(CO)c(S(C)(=O)=O)c3)cc2F)c(C(C)(C)c2c(F)cccc2Cl)n1 [Example 7, 2-(2-(2-(2-chloro-6-fluorophenyl)propan-2-yl)-1-(3,3′-difluoro-4′-(hydroxymethyl)-5′-(methylsulfonyl)biphenyl-4-yl)-1H-imidazol-4-yl)propan-2-ol]
9 | > 7.00 | 10 | CC(C)(O)c1cn(-c2ccc(-c3cc(F)c(CO)c(S(C)(=O)=O)c3)cc2F)c(C(C)(C)c2ccccc2F)n1 [Example 8, 2-{1-(3,3′-Difluoro-4′-hydroxymethyl-5′-methanesulfonyl-biphenyl-4-yl)-2-[2-(2-fluorophenyl)propan-2-yl]-1H-imidazol-4-yl}-propan-2-ol]
10 |  | 20 | CC(C)(O)c1cn(-c2ccc(-c3cc(F)c(CO)c(S(C)(=O)=O)c3)cc2F)c(C(C)(C)c2c(Cl)cccc2Cl)n1 [Example 9, 2-(2-(2-(2,6-dichlorophenyl)propan-2-yl)-1-(3,3′-difluoro-4′-(hydroxymethyl)-5′-(methylsulfonyl)biphenyl-4-yl)-1H-imidazol-4-yl)propan-2-ol]
11 | < 6.00 |  | CC(C)(O)c1cn(-c2ccc(-c3cc(F)c(CO)c(S(C)(=O)=O)c3)cc2F)c(Cc2ccc(Cl)cc2Cl)n1 [Example 11, 2-(2-(2,4-dichlorobenzyl)-1-(3,3′-difluoro-4′-(hydroxymethyl)-5′-(methylsulfonyl)biphenyl-4-yl)-1H-imidazol-4-yl)propan-2-ol]
12 | > 7.00 | 13 | CC(C)(O)c1cn(-c2ccc(-c3cc(F)c(CO)c(S(C)(=O)=O)c3)cc2F)c(Cc2ccccc2C(F)(F)F)n1 [Example 12, 2-(1-(3,3′-difluoro-4′-(hydroxymethyl)-5′-(methylsulfonyl)biphenyl-4-yl)-2-(2-(trifluoromethyl)benzyl)-1H-imidazol-4-yl)propan-2-ol]
13 | > 7.00 | 18 | CC(C)(O)c1cn(-c2ccc(-c3cc(F)c(CO)c(S(C)(=O)=O)c3)cc2Cl)c(Cc2ccc(F)cc2Cl)n1 [Example 13, 2-(1-(3-chloro-3′-fluoro-4′-(hydroxymethyl)-5′-(methylsulfonyl)biphenyl-4-yl)-2-(2-chloro-4-fluorobenzyl)-1H-imidazol-4-yl)propan-2-ol]
14 | > 7.00 | 15 | CC(C)(O)c1cn(-c2ccc(-c3cc(F)c(CO)c(S(C)(=O)=O)c3)cc2F)c(Cc2ccc(F)cc2Cl)n1 [Example 14, 2-(2-(2-chloro-4-fluorobenzyl)-1-(3,3′-difluoro-4′-(hydroxymethyl)-5′-(methylsulfonyl)biphenyl-4-yl)-1H-imidazol-4-yl)propan-2-ol]
15 | > 7.00 | 8 | CC(C)(O)c1cn(-c2ccc(-c3cc(F)c(CO)c(S(C)(=O)=O)c3)cc2)c(Cc2ccc(Cl)cc2Cl)n1 [Example 15, 2-(2-(2,4-dichlorobenzyl)-1-(3′-fluoro-4′-(hydroxymethyl)-5′-(methylsulfonyl)biphenyl-4-yl)-1H-imidazol-4-yl)propan-2-ol]
16 | > 7.00 | 19 | CC(C)(O)c1cn(-c2ccc(-c3cc(F)c(CO)c(S(C)(=O)=O)c3)cc2F)c(Cc2ccccc2F)n1 [Example 16, 2-(1-(3,3′-difluoro-4′-(hydroxymethyl)-5′-(methylsulfonyl)biphenyl-4-yl)-2-(2-fluorobenzyl)-1H-imidazol-4-yl)propan-2-ol]
